Here are results for 16 compounds from patent publication US5622965A, “4-hydroxy-3-nitro-1,2-dihydroquinolin-2-ones and the use thereof as excitatory amino acid and glycine receptor antagonists” (priority 1993, dated 1997).

Read-outs that look alike come from different tables or passages of the source.

The conditions of data set [1]: cited from earlier work.
Data set [2] deals with glycine binding site of the NMDA receptor. The note with it: cited from earlier work.
In the next data set the test system is neurons. The following applies: in words; cited from earlier work.
For data set [3] the following is noted: in words; cited from earlier work.
For a further data set, the target named is glycine/NMDA receptor. As to the kind of experiment: 1 μM glycine-stimulated [3H]-MK801 binding assay (glycine/NMDA receptor). The following applies: for Ki: glycine/NMDA receptor binding; for potency relative to 5,7-dichlorokynurenic acid (DCK): % of DCK. Set-up: species or system rat. The protocol:
This assay takes advantage of the fact that the binding of [^3 H]-MK801 to the PCP receptor inside the pore of the NMDA channel is dependent on the presence of both glutamate and glycine. In the absence of glycine but in the presence of glutamate, [^3 H]-MK801 cannot bind effectively to the PCP receptor, because the NMDA channel remains closed and access of [^3 H]-MK801 to the PCP receptor inside the closed channel pore is severely restricted.
The assay is conducted using rat brain membrane homogenates which are enriched in NMDA receptors. The membranes are prepared as follows. Frozen rat brains obtained from Pel-Freez, Rogers, Arkansas) are homogenized in 15 volumes (w/v) of ice cold 0.32M sucrose. The homogenate is spun at 1,000×g for ten minutes. The supernatant is collected and spun for 20 minutes at 44,000×g. The pellet is suspended in 15 volumes of water (relative to original brain weight). The homogenate is again spun at 44,000×g for twenty minutes. The pellet is resuspended in 5 volumes of water and the suspension is freeze-thawed 2 times. After the final thaw cycle, the suspension is brought to 15 volumes with water and spun at 44,000×g for twenty minutes. The pellet is resuspended in 5 volumes of ice-cold 10 mM HEPES, and is titrated to pH 7.4 with KOH containing 0.04% Triton X-100. Membranes are incubated with the Triton/HEPES buffer at 37° C. for 15 minutes. The volume is then brought to 15 with ice-cold 10 mM HEPES, pH 7.4, and spun/washed three times with spins of 44,000×g between washes. The final pellet is suspended in three volumes of 50 mM HEPES, pH 7.4 and the protein concentration is determined with a standard dye-binding protein assay (Bio-Rad, Richmond, Calif.). The suspension is stored at-80° C. until used. Only HPLC grade water is used for all buffers and suspensions/washings. The extensive washings are necessary to remove as much endogenous glycine from the membrane preparation as possible.
Nonspecific binding is defined as the […] presence of PCP (final concentration: 100 μM). To determine the effect of 1 μM glycine on the binding of [3H]-MK801, bound radioactivity in the presence of 10 μM glutamate alone (final concentration) is subtracted from the bound radioactivity in the presence of both 10 μM glummate and 1 μM glycine (final concentration). A 500 nM concentration (final) of 5,7-dichlorokynurenic (DCK) acid is added to all assay tubes. This concentration of the glycine antagonist DCK "buffers" most of the residual endogenous glycine that is not removed by the extensive washing steps that are carried out during the membrane preparation procedure.
The assays are incubated for 120 minutes at room temperature after which time the membrane-bound radioactivity is isolated from the free radioactivity by vacuum filtration through Whatman glass fiber filters that had been pretreated with 0.3% polyethyleneimine. Filtration is accomplished using a Brandel 48 well cell harvester. Filtered membranes are washed three times with 3 ml each of ice cold buffer. Filters are transferred to scintillation vials and 5 ml of scintillation cocktail is added. The vials are shaken overnight and the radioactivity is counted by liquid scintillation spectroscopy. The assays are done in triplicate and all experiments are conducted at least three times.

A further data set has as its system glycine receptor. Kind of data set: binding to the glycine receptor (general statement). The note with it: in words.
A further data set relates to pigeons. The following applies: in words; cited from earlier work.
The test system of a further data set is rodents. The note with it: in words; cited from earlier work.
For a further data set, the target named is PCP receptor. The note with it: cited from earlier work.

Consider `O=C(O)c1cc(O)c2c(Cl)cc(Cl)cc2n1` [5,7-dichlorokynurenic acid], for which the blood/brain barrier penetration result in data set [1] (in vivo) is on record as “cannot penetrate the blood/brain barrier”. In data set [2] (in words), the “affinity for the glycine binding site” value is “relatively high receptor binding affinity”. With `O=C(O)c1cc2ccccc2[nH]1` [indole-2-carboxylic acid], in data set [1] (in words), the blood/brain barrier penetration entry was “cannot penetrate the blood/brain barrier”. Also, in [2] (in words), the “affinity for the glycine binding site” value is “relatively high receptor binding affinity”.

For the compound `CNC1(c2ccccc2Cl)CCCCC1=O` (stereo not drawn) [ketamine], the neuroprotective efficacy entry with neurons was “neuroprotective efficacy both in vitro and in vivo”.

`O=C(O)[C@@H]1C[C@H](CP(=O)(O)O)CCN1` [CGS 19755]: the “PCP-like behavioral side effects” value in [3] is recorded as “adverse PCP-like behavioral side effects”. In the data set with neurons, the neuroprotective efficacy result was “neuroprotective efficacy”. For `O=C(O)c1cc(O)c2ccc(Cl)cc2n1` [7-Cl-kynurenic acid], the blood/brain barrier penetration entry in data set [1] (in words) was “cannot penetrate the blood/brain barrier”. For the same compound, the “affinity for the glycine binding site” value in data set [2] (in words) is given as “relatively high receptor binding affinity”. In the case of `O=C(O)C1CC2CC(CP(=O)(O)O)CCC2CN1` (stereo not drawn) [LY274614], the neuroprotective efficacy result in the data set with neurons is “neuroprotective efficacy”. For `COc1ccc2c(c1)[C@]13CCCC[C@@H]1[C@H](C2)N(C)CC3` [dextromethorphan], the neuroprotective efficacy entry in the data set on neurons is “neuroprotective efficacy both in vitro and in vivo”.

Compound “5,6-dichloro-3-nitro-4-hydroxy-1,2-dihydroquinolin-2-one [Compound 16f]” came in with a Ki at glycine/NMDA receptor of 800 nM. Regarding `O=c1[nH]c2cc(Cl)cc(Cl)c2c(O)c1[N+](=O)[O-]` [Compound 16c, 5,7-dichloro-3-nitro-4-hydroxy-1,2-dihydroquinolin-2-one], in the data set on glycine/NMDA receptor, the “potency relative to 5,7-dichlorokynurenic acid (DCK)” value was found to be 19% and the Ki was found to be 1400 nM. On to `O=c1[nH]c2cc(Cl)cc(Cl)c2[nH]c1=O` [5,7-dichloro-QX], for which, in the data set with glycine/NMDA receptor, the “potency relative to 5,7-dichlorokynurenic acid (DCK)” value was determined as 20%. On to `O=c1[nH]c2ccccc2c(O)c1[N+](=O)[O-]` [Compound 16a, 3-Nitro-4-hydroxy-1,2-dihydroquinolin-2-one], for which, in the data set on glycine receptor, the “binding to the glycine receptor” value is reported as “high binding” and the “selectivity for the glycine receptor” value is “highly selective”. Also, in the data set on glycine/NMDA receptor, the “potency relative to 5,7-dichlorokynurenic acid (DCK)” value came out at 1.4% and the affinity corresponds to a Ki of 18000 nM. As for `O=c1[nH]c2ccc([N+](=O)[O-])cc2c(O)c1[N+](=O)[O-]` [Compound 16b, 3,6-Dinitro-4-hydroxy-1,2-dihydroquinolin-2-one], in the data set on glycine/NMDA receptor (in words), the “activity relative to 16a” value is “about as active as 16a”.

On to `c1ccc(C2(N3CCCCC3)CCCCC2)cc1` [PCP, phencyclidine], for which the “PCP-like behavioral effect in pigeons” value in the data set on pigeons is reported as “characteristic katalepsy”. Further, the neuroprotective efficacy result in the data set on neurons is “neuroprotective efficacy both in vitro and in vivo”. Moreover, in the data set on rodents, the “PCP-like behavioral effects in rodents / animal models” value is recorded as “behavioral excitation (hyperlocomotion)”. In the case of `NC1CCN(O)C1=O` (stereo not drawn) [HA-966], in data set [1] (in words), the blood/brain barrier penetration entry is listed as “sufficiently penetrates the blood/brain barrier”. In [2] (in words), the “affinity for the glycine binding site” value is given as “micromolar affinity” and the “mode of action at the glycine binding site” value is “partial agonist”. Turning to `C[C@]12N[C@H](Cc3ccccc31)c1ccccc12` [MK-801], the “PCP-like behavioral side effects” value in data set [3] was “adverse PCP-like behavioral side effects”. Further, the neuroprotective efficacy result in the data set on neurons was “neuroprotective efficacy both in vitro and in vivo”. In addition, the Kd at PCP receptor was around 3 nM. On to `NCC(=O)O` [glycine], for which the Kd in data set [2] (used in Cheng and Prusoff equation, read-out: known affinity of glycine for the glycine binding site) was 100 nM.

Usually Ki stands for the equilibrium dissociation constant of an inhibitor or competing ligand from its target. Read a low Ki as higher affinity.
